The text below walks through data of patent publication US10100050B2 (CHIESI FARMACEUTICI S.P.A., priority 2015, dated 2018).

One experiment deals with BEAS-2B cells. Put plainly: TNFα-stimulated BEAS-2B IL-8 release assay. It is filed as cell-based. As to conditions: Homo sapiens, IC50 classes, TNF-α 10 ng/ml, 18 h, read-out: TNFα-stimulated BEAS-2B IL-8 release inhibition. A digest of the protocol:
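BEAS-2B cells at 80-90% confluence were pre-incubated 1 h with p38 inhibitors, then stimulated 18 h at 37 °C with TNF-α (10 ng/ml). Supernatant IL-8 was measured by ELISA. IC50 was taken from sigmoidal variable-slope fits of % inhibition of control release.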

In another experiment the target is T1, p38alpha (Homo sapiens, UniProt Q16539).
T1 construct: purchased Invitrogen PV3304
Nature of the experiment: P38alpha enzyme inhibition assay (Alphascreen kinase activity assay). It is filed as biochemical. To be noted: IC50 classes; 2 hours preincubation at 25° C., 250 μM ATP; read-out: p38α inhibition. An outline of the steps:
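p38alpha with 0.3 μg/ml ATF-2 fusion protein in HEPES pH 7.5 buffer (10 mM MgCl2, 2 mM DTT, 1% DMSO); compounds preincubated 2 h at 25° C, then 250 μM ATP added for 1 h at 25° C. Phospho-ATF2 detected by AlphaScreen luminescence with anti-phospho-ATF2 antibody; IC50 from concentration-response curves.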
(Alpha assays give light when donor and acceptor beads are brought close together.)

Experiment [1] concerns Peripheral Blood Mononuclear Cells (PBMCs). Put plainly: LPS-stimulated PBMC TNFα release assay. It is filed as cell-based. To be noted: IC50 classes; human PBMC, LPS 10 ng/ml, 18 h; read-out: LPS-stimulated PBMC TNFα release inhibition. An outline of the steps:
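Human PBMCs from healthy donors, adhered 3 h in serum-free RPMI, received compound for 1 h in 1% FBS medium before 10 ng/ml LPS for 18 h. Supernatant TNFα was measured by MSD; IC50 from percentage inhibition of control release, at least three separate experiments.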

The structures appear in SMILES notation. Bounds are passed on as bounds.

T1 sequence (Q16539 whole entry): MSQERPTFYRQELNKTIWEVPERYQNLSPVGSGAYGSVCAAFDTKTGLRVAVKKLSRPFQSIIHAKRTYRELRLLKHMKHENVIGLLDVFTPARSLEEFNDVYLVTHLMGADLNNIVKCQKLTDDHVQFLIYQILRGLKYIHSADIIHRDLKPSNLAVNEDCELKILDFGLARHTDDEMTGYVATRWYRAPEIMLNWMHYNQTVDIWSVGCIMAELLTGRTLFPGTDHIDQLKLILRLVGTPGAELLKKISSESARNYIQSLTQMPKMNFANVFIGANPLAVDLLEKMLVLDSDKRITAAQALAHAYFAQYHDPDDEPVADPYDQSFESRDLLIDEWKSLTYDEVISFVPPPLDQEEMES

As to `CN1CCC[C@@]1(C)c1nnc2ccc(O[C@@H]3CC[C@H](NC(=O)Nc4cc(C(=O)NCCO)cc(C(C)(C)C)c4)c4ccccc43)cn12` [Example 51, 3-tert-Butyl-5-(3-{(1S,4R)-4-[3-((S)-1,2-dimethyl-pyrrolidin-2-yl)-[1,2,4]triazolo[4,3-a]pyridin-6-yloxy]-1,2,3,4-tetrahydro-naphthalen-1-yl}-ureido)-N-(2-hydroxy-ethyl)-benzamide], the IC50 with BEAS-2B cells was 0.3 to 1 nM; on p38alpha, < 1 nM; in experiment [1], < 1 nM.

Take `COc1c(NC(C)=O)cc(C(C)(C)C)cc1NC(=O)N[C@H]1CC[C@@H](Oc2ccc3nnc([C@@H]4CCCN4C(C)C)n3c2)c2ccccc21` [Example 9, N-[5-tert-Butyl-3-(3-{(1S,4R)-4-[3-((S)-1-isopropyl-pyrrolidin-2-yl)-[1,2,4]triazolo[4,3-a]pyridin-6-yloxy]-1,2,3,4-tetrahydro-naphthalen-1-yl}-ureido)-2-methoxy-phenyl]-acetamide]: the IC50 is < 0.3 nM with BEAS-2B cells, 1 to 10 nM at p38alpha and < 1 nM in experiment [1].

Take `COc1c(CO)cc(C(C)(C)C)cc1NC(=O)N[C@H]1CC[C@@H](Oc2ccc3nnc([C@@H]4CCCN4C)n3c2)c2ccccc21` [Example 2, 1-(5-tert-Butyl-3-hydroxymethyl-2-methoxy-phenyl)-3-{(1S,4R)-4-[-3-((S)-1-methyl-pyrrolidin-2-yl)-[1,2,4]triazolo[4,3-a]pyridin-6-yloxy]-1,2,3,4-tetrahydro-naphthalen-1-yl}-urea]: the IC50 was < 0.3 nM with BEAS-2B cells, < 1 nM at p38alpha and < 1 nM in experiment [1].

For the compound `CN1CCC[C@@]1(C)c1nnc2ccc(O[C@@H]3CC[C@H](NC(=O)Nc4cc(NS(=O)(=O)C5CC5)cc(C(C)(C)C)c4)c4ccccc43)cn12` [Example 37, Cyclopropanesulfonic acid [3-tert-butyl-5-(3-{(1S,4R)-4-[3-((S)-1,2-dimethyl-pyrrolidin-2-yl)-[1,2,4]triazolo[4,3-a]pyridin-6-yloxy]-1,2,3,4-tetrahydro-naphthalen-1-yl}-ureido)-phenyl]-amide], the IC50 was < 0.3 nM in the experiment on BEAS-2B cells, 1 to 10 nM at p38alpha and < 1 nM in experiment [1].
